Measurements as given in patent US20050113292A1 (priority 2003, published 2005).
“And” between values parts separate entries of the source, which are not always exact repeats. Identical values can stand only once. Like-named read-outs stand apart in the source and are kept apart here.

Key:
[1] = test system: R9 HIV-1 virus; format: cell-based
[2] = test system: M-tropic (BAL) HIV-1; settings: for IC50: M-tropic (BAL)
[3] = test system: T-tropic (R8) HIV-1; settings: for IC50: T-tropic (R8)
[4] = test system: HIV-1 mediated cell-cell fusion (R8 virus); settings: for EC50 / IC50: mediated cell-cell fusion (R8 virus)
[5] = test system: HIV-1; format: cell-based
[6] = target: gp41 of T20-resistant HIV-1 virus (HIV-1 (T20-resistant virus)); assay: cell-based or functional assay
[7] = target: gp41 of M-tropic HIV-1 BAL virus (HIV-1 (BAL)); assay: cell-based or functional assay
[8] = target: gp41 of HIV-1 NL4-3 (HIV-1 (NL4-3)); assay: cell-based or functional assay
[9] = target: gp41 of T-tropic HIV-1 R8 virus (HIV-1 (R8)); assay: cell-based or functional assay
[10] = test system: NL4-3 (MT-4)
[11] = test system: T-20 Resistant Virus
[12] = test system: HIV; settings: human, in vivo; cited from earlier work

Molecule | percentage of inhibition of cell infection ([1]; 0.01 µM) [%] | fold increase of potency over monomer, BAL virus [2] [fold] | IC50 [2] [nM] | fold increase of potency over monomer, R8 virus [3] [fold] | IC50 [3] [nM] | fold increase over monomer, cell-cell fusion [4] [fold] | EC50 [4] [nM] | IC50 [4] [nM] | Neutralization (%) [5] | IC50, single-cycle MAGI infection of P4R5 cells, T-20 Resistant Virus [6] [nM] | IC50, single-cycle MAGI infectivity, BAL virus [7] [nM] | IC50, single-cycle MAGI infection of P4R5 cells, NL4-3 (MT-4) [8] [nM] | IC50, HIV-1 mediated cell-cell fusion (syncytium formation), R8 virus [9] [nM] | IC50, single-cycle MAGI infectivity, R8 virus [9] [nM] | percentage of inhibition of cell infection ([1]; 0.5 µM) [%] | IC50 [10] [nM] | IC50 [11] [nM] | Ratio [11] | reduction of plasma HIV RNA levels [12] [logs]
CC[C@H](C)[C@H](NC(=O)[C@H](CC(C)C)NC(=O)[C@H](CO)NC(=O)[C@H](Cc1c[nH]cn1)NC(=O)[C@@H](NC(=O)[C@H](CC(C)C)NC(=O)[C@H](CO)NC(=O)[C@@H](NC(=O)[C@H](Cc1ccc(O)cc1)NC(=O)[C@@H]1CSC(C(=O)NCCCC[C@H](NC(=O)CCNC(=O)C2N[C@H](C(=O)N[C@@H](Cc3ccc(O)cc3)C(=O)N[C@H](C(=O)N[C@@H](CO)C(=O)N[C@@H](CC(C)C)C(=O)N[C@H](C(=O)N[C@@H](Cc3c[nH]cn3)C(=O)N[C@@H](CO)C(=O)N[C@@H](CC(C)C)C(=O)N[C@H](C(=O)N[C@@H](CCC(=O)O)C(=O)N[C@@H](CCC(=O)O)C(=O)N[C@@H](CO)C(=O)N[C@@H](CCC(N)=O)C(=O)N[C@@H](CC(N)=O)C(=O)N[C@@H](CCC(N)=O)C(=O)N[C@@H](CCC(N)=O)C(=O)N[C@@H](CCC(=O)O)C(=O)N[C@@H](CCCCN)C(=O)N[C@@H](CC(N)=O)C(=O)N[C@@H](CCC(=O)O)C(=O)N[C@@H](CCC(N)=O)C(=O)N[C@@H](CCC(=O)O)C(=O)N[C@@H](CC(C)C)C(=O)N[C@@H](CC(C)C)C(=O)N[C@@H](CCC(=O)O)C(=O)N[C@@H](CC(C)C)C(=O)N[C@@H](CC(=O)O)C(=O)N[C@@H](CCCCN)C(=O)N[C@@H](Cc3c[nH]c4ccccc34)C(=O)N[C@@H](C)C(=O)N[C@@H](CO)C(=O)N[C@@H](CC(C)C)C(=O)N[C@@H](Cc3c[nH]c4ccccc34)C(=O)N[C@@H](CC(N)=O)C(=O)N[C@@H](Cc3c[nH]c4ccccc34)C(=O)N[C@@H](Cc3ccccc3)C(=O)O)[C@@H](C)CC)[C@@H](C)CC)[C@@H](C)O)CS2)C(=O)N[C@@H](CO)C(=O)N[C@@H](CO)C(=O)N[C@@H](C)C(N)=O)N1)[C@@H](C)O)[C@@H](C)CC)C(=O)N[C@@H](CCC(=O)O)C(=O)N[C@@H](CCC(=O)O)C(=O)N[C@@H](CO)C(=O)N[C@@H](CCC(N)=O)C(=O)N[C@@H](CC(N)=O)C(=O)N[C@@H](CCC(N)=O)C(=O)N[C@@H](CCC(N)=O)C(=O)N[C@@H](CCC(=O)O)C(=O)N[C@@H](CCCCN)C(=O)N[C@@H](CC(N)=O)C(=O)N[C@@H](CCC(=O)O)C(=O)N[C@@H](CCC(N)=O)C(=O)N[C@@H](CCC(=O)O)C(=O)N[C@@H](CC(C)C)C(=O)N[C@@H](CC(C)C)C(=O)N[C@@H](CCC(=O)O)C(=O)N[C@@H](CC(C)C)C(=O)N[C@@H](CC(=O)O)C(=O)N[C@@H](CCCCN)C(=O)N[C@@H](Cc1c[nH]c2ccccc12)C(=O)N[C@@H](C)C(=O)N[C@@H](CO)C(=O)N[C@@H](CC(C)C)C(=O)N[C@@H](Cc1c[nH]c2ccccc12)C(=O)N[C@@H](CC(N)=O)C(=O)N[C@@H](Cc1c[nH]c2ccccc12)C(=O)N[C@@H](Cc1ccccc1)C(=O)O (stereo partly drawn) [Compound 2α-DP178] | ~100 | 14 | 0.28 | 182 | 0.42 | 122 | 0.18 | 0.18 | <5% and 6% |  |  |  |  |  |  |  |  |  | 
CC[C@H](C)[C@H](NC(=O)[C@H](CC(C)C)NC(=O)[C@H](CO)NC(=O)[C@H](Cc1c[nH]cn1)NC(=O)[C@@H](NC(=O)[C@H](CC(C)C)NC(=O)[C@H](CO)NC(=O)[C@@H](NC(=O)[C@H](Cc1ccc(O)cc1)NC(=O)[C@H](CC(N)=O)NC(=O)[C@H](CC(N)=O)NC(=O)[C@@H](NC(=O)[C@H](CCC(=O)O)NC(=O)[C@H](CCCNC(=N)N)NC(=O)[C@H](CC(=O)O)NC(=O)[C@H](Cc1c[nH]c2ccccc12)NC(=O)[C@H](CCC(=O)O)NC(=O)[C@H](CCSC)NC(=O)[C@@H]1Cc2c([nH]c3ccccc23)C(C(=O)NCCCC[C@H](NC(=O)CCNC(=O)C2N[C@H](C(=O)N[C@@H](CCSC)C(=O)N[C@@H](CCC(=O)O)C(=O)N[C@@H](Cc3c[nH]c4ccccc34)C(=O)N[C@@H](CC(=O)O)C(=O)N[C@@H](CCCNC(=N)N)C(=O)N[C@@H](CCC(=O)O)C(=O)N[C@H](C(=O)N[C@@H](CC(N)=O)C(=O)N[C@@H](CC(N)=O)C(=O)N[C@@H](Cc3ccc(O)cc3)C(=O)N[C@H](C(=O)N[C@@H](CO)C(=O)N[C@@H](CC(C)C)C(=O)N[C@H](C(=O)N[C@@H](Cc3c[nH]cn3)C(=O)N[C@@H](CO)C(=O)N[C@@H](CC(C)C)C(=O)N[C@H](C(=O)N[C@@H](CCC(=O)O)C(=O)N[C@@H](CCC(=O)O)C(=O)N[C@@H](CO)C(=O)N[C@@H](CCC(N)=O)C(=O)N[C@@H](CC(N)=O)C(=O)N[C@@H](CCC(N)=O)C(=O)N[C@@H](CCC(N)=O)C(=O)N[C@@H](CCC(=O)O)C(=O)N[C@@H](CCCCN)C(=O)N[C@@H](CC(N)=O)C(=O)N[C@@H](CCC(=O)O)C(=O)N[C@@H](CCC(N)=O)C(=O)N[C@@H](CCC(=O)O)C(=O)N[C@@H](CC(C)C)C(=O)N[C@@H](CC(C)C)C(=O)O)[C@@H](C)CC)[C@@H](C)CC)[C@@H](C)O)[C@@H](C)CC)Cc3c2[nH]c2ccccc32)C(=O)N[C@@H](CCCCNC(=O)CNC(=O)C2N[C@H](C(=O)N[C@@H](CCSC)C(=O)N[C@@H](CCC(=O)O)C(=O)N[C@@H](Cc3c[nH]c4ccccc34)C(=O)N[C@@H](CC(=O)O)C(=O)N[C@@H](CCCNC(=N)N)C(=O)N[C@@H](CCC(=O)O)C(=O)N[C@H](C(=O)N[C@@H](CC(N)=O)C(=O)N[C@@H](CC(N)=O)C(=O)N[C@@H](Cc3ccc(O)cc3)C(=O)N[C@H](C(=O)N[C@@H](CO)C(=O)N[C@@H](CC(C)C)C(=O)N[C@H](C(=O)N[C@@H](Cc3c[nH]cn3)C(=O)N[C@@H](CO)C(=O)N[C@@H](CC(C)C)C(=O)N[C@H](C(=O)N[C@@H](CCC(=O)O)C(=O)N[C@@H](CCC(=O)O)C(=O)N[C@@H](CO)C(=O)N[C@@H](CCC(N)=O)C(=O)N[C@@H](CC(N)=O)C(=O)N[C@@H](CCC(N)=O)C(=O)N[C@@H](CCC(N)=O)C(=O)N[C@@H](CCC(=O)O)C(=O)N[C@@H](CCCCN)C(=O)N[C@@H](CC(N)=O)C(=O)N[C@@H](CCC(=O)O)C(=O)N[C@@H](CCC(N)=O)C(=O)N[C@@H](CCC(=O)O)C(=O)N[C@@H](CC(C)C)C(=O)N[C@@H](CC(C)C)C(=O)O)[C@@H](C)CC)[C@@H](C)CC)[C@@H](C)O)[C@@H](C)CC)Cc3c2[nH]c2ccccc32)C(=O)N[C@@H](CO)C(=O)N[C@@H](CO)C(=O)N[C@@H](C)C(N)=O)N1)[C@@H](C)CC)[C@@H](C)O)[C@@H](C)CC)C(=O)N[C@@H](CCC(=O)O)C(=O)N[C@@H](CCC(=O)O)C(=O)N[C@@H](CO)C(=O)N[C@@H](CCC(N)=O)C(=O)N[C@@H](CC(N)=O)C(=O)N[C@@H](CCC(N)=O)C(=O)N[C@@H](CCC(N)=O)C(=O)N[C@@H](CCC(=O)O)C(=O)N[C@@H](CCCCN)C(=O)N[C@@H](CC(N)=O)C(=O)N[C@@H](CCC(=O)O)C(=O)N[C@@H](CCC(N)=O)C(=O)N[C@@H](CCC(=O)O)C(=O)N[C@@H](CC(C)C)C(=O)N[C@@H](CC(C)C)C(=O)O (stereo partly drawn) [Compound 3α-C34] |  | 88 | 0.06 | 42 | 1 | 34 | 1 | 1 | <5% |  |  |  |  |  |  |  |  |  | 
DP178 (from UniProt P04578 638-673) (peptide) |  |  |  |  |  |  |  |  |  | 32.3 | 3.9 | 4.31 | 22.1 | 76.4 |  |  |  |  | 
enfuvirtide |  |  | 3.9 |  | 76.4 |  | 22.1 | 22.1 |  |  |  |  |  |  | ~100 | 4.31 | 32.3 | 7.50 | ≤ 2
